# Laboratory results reported in ChEMBL document CHEMBL5154725, “SAR evolution towards potent C-terminal carboxamide peptide inhibitors of Zika virus NS2B-NS3 protease” (Bioorg Med Chem, 2022).
# Active and inactive are the calls of the source. The calls are words filed in the database; no cut-off is given here. Residues, ends and D or L forms follow the SMILES beside them. *: point of attachment. PhAc = O=C(Cc1ccccc1)*
# Experiments:
# Zika virus [1] = test: (§1) Inhibition of 6-His tagged-G4SG4 fused ZIKV NS2B (49 to 95 residues) R95A mutant-NS3 (1 to 170 residue) R29G mutant expressed in Escherichia coli BL21 (DE3) using Bz-Nle-K-RR-AMC substrate preincubated for 10 mins followed by substrate addition and measured after 30 mins by fluorescence assay; details: time 40.0 min
# [2] = as §1; set-up: species or system Zika virus
# Zika virus [3] = test: Antiviral activity against ZIKV infected in African Green monkey Vero cells assessed as reduction in viral replication; assay type: functional, organism-based
# [4] = Stability of compound assessed 6-His tagged-G4SG4 fused ZIKV NS2B (49 to 95 residues) R95A mutant-NS3 (1 to 170 residue) R29G mutant expressed in Escherichia coli BL21 (DE3) based degradation by LC-HRMS analysis; assay type: ADME; details: zika virus
# [5] = Binding affinity to 6-His tagged-G4SG4 fused ZIKV NS2B (49 to 95 residues) R95A mutant-NS3 (1 to 170 residue) R29G mutant expressed in Escherichia coli BL21 (DE3) by surface plasmon resonance assay; set-up: species or system Zika virus
# Zika virus [6] = test: as §1, with “(DE3) assessed as covalent adduct formation” for “(DE3)”, “LC-HRMS analysis” for “fluorescence assay”; details: time 40.0 min
# [7] = Inhibition of 6-His tagged-G4SG4 fused WNV NS2B (1423 to 1470 residues) -NS3 (1506 to 1689 residue) using pERTKR-AMC substrate preincubated for 10 mins followed by substrate addition and measured after 30 mins by fluorescence assay; set-up: species or system West Nile virus
# Trypsin = Trypsin (Homo sapiens, UniProt P07477+P07478+P35030); test: Inhibition of human trypsin; assay type: protein assay
# Genome polyprotein = Genome polyprotein (dengue virus type 2, UniProt P29990); test: Inhibition of 6-His tagged-G4SG4 fused DENV2 NS2B (1394 to 1440 residues) -NS3 (1476 to 1660 residue) expressed in Escherichia coli BL21 (DE3) using Bz-Nle-K-RR-AMC substrate preincubated for 10 mins followed by substrate addition and measured after 30 mins by fluorescence assay
# Sequence of Genome polyprotein (P29990 1346-1475 limits assumed): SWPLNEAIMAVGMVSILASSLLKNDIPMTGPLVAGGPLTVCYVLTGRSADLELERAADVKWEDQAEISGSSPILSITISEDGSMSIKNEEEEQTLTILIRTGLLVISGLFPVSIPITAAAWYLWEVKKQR
# Sequence of Genome polyprotein (P29990 1476-2093 limits assumed): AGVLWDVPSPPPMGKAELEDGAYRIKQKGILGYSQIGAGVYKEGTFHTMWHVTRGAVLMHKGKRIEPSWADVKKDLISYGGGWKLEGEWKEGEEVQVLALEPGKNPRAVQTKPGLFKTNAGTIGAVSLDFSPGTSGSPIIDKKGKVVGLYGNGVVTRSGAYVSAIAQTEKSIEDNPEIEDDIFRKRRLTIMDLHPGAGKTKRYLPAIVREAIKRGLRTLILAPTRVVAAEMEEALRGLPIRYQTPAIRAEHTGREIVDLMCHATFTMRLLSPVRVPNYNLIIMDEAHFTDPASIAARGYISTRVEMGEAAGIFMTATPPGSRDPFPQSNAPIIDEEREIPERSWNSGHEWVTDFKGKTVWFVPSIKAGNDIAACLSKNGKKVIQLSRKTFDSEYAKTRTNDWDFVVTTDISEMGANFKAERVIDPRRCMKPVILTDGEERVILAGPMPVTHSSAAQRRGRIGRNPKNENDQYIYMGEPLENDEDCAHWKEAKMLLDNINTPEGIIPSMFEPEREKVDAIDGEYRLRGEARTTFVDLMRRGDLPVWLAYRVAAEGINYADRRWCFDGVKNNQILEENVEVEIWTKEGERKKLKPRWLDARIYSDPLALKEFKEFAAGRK
Structure (SMILES),IC10 (Zika virus [1]),IC80 (Zika virus [1]),IC50 [2],Ki [2],EC50 (Zika virus [3]),Stability [4],Kd [5],inhibition (Zika virus [6]),IC50 [7],IC50 (Trypsin),IC50 (Genome polyprotein)
N=C(N)NCCC[C@H](NC(=O)[C@H](CCCCN)NC(=O)[C@H](CCCCN)NC(=O)Cc1ccccc1)C(N)=O (PhAc-Lys-Lys-Arg-NH2),300 nM,10000 nM,3000 nM,2400 nM,–,–,–,–,–,–,–
CC(=O)N[C@@H](CCCCN)C(=O)N[C@@H](CCCCN)C(=O)N[C@H](C(=O)NCc1ccc(OCc2ccc(C(F)(F)F)cc2)cc1)c1ccccc1,–,–,41 nM,14 nM,11200 nM,Stable,23 nM,Active,–,–,–
CC(=O)N[C@@H](CCCCN)C(=O)N[C@@H](CCCCN)C(=O)N[C@H](C(=O)NCc1ccccc1)c1ccc(OCc2ccc(C(F)(F)F)cc2)cc1,–,–,28 nM,7 nM,8500 nM,Stable,11 nM,Active,800 nM,2300 nM,200 nM
